Assay results from ChEMBL document CHEMBL1201862, “PubChem BioAssay data set” (2004).
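Results reflect a 48-hour exposure of cells in 96-well plates to compound at five concentrations. At the GI50, growth is halved.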 The source made the active and inactive calls. Rule as the data show it: active = GI50 up to about 1.1 µM and inactive = higher.

Experiments:
Experiment in all cases: inhibition of tumour cell growth, NCI panel, 48 h
[1] = tested on: XF498
[2] = tested on: NCI-H522
[3] = tested on: SNB-78
[4] = tested on: HCT-15
[5] = tested on: M19-MEL
[6] = tested on: SK-MEL-2
[7] = tested on: RPMI-8226
[8] = tested on: K562
[9] = tested on: SR
[10] = tested on: ACHN
[11] = tested on: U-251
[12] = tested on: DLD-1
[13] = tested on: HCT-116
[14] = tested on: NCI-H23
[15] = tested on: EKVX
[16] = tested on: A549
[17] = tested on: HOP-92
[18] = tested on: SW-620
[19] = tested on: IGROV-1
[20] = tested on: Malme-3M
[21] = tested on: SK-MEL-5
[22] = tested on: TK-10
[23] = tested on: SK-OV-3
[24] = tested on: DMS-273
[25] = tested on: MOLT-4
[26] = tested on: UACC-257
[27] = tested on: SK-MEL-28
[28] = tested on: UO-31
[29] = tested on: HT-29
[30] = tested on: KM12
[31] = tested on: UACC-62
[32] = tested on: LOX IMVI
[33] = tested on: OVCAR-3
[34] = tested on: SF-268
[35] = tested on: CAKI-1
[36] = tested on: NCI-H226
[37] = tested on: 786-0
[38] = tested on: M14
[39] = tested on: HL-60
[40] = tested on: KM-20L2
[41] = tested on: CCRF-CEM
[42] = tested on: LXFL 529
[43] = tested on: SN12C
[44] = tested on: SF-295
[45] = tested on: SNB-75
[46] = tested on: SF-539

## COc1ccc(/C(C#N)=C2/O/C(=N/N)C(c3ccc(OC)c(OC)c3)C2=O)cc1OC (stereo unspecified)
[1]
  GI50: > 100 µM (inactive)
[2]
  GI50: > 100 µM (inactive)
[3]
  GI50: > 100 µM (inactive)
[4]
  GI50: > 100 µM
[5]
  GI50: > 100 µM (inactive)
[6]
  GI50: > 100 µM (inactive)
[7]
  GI50: > 100 µM (inactive)
[8]
  GI50: > 100 µM (inactive)
[9]
  GI50: > 100 µM (inactive)
[10]
  GI50: > 100 µM (inactive)
[11]
  GI50: > 100 µM (inactive)
[12]
  GI50: > 100 µM (inactive)
[13]
  GI50: > 100 µM (inactive)
[14]
  GI50: > 100 µM (inactive)
[15]
  GI50: > 100 µM (inactive)
[16]
  GI50: > 100 µM (inactive)
[17]
  GI50: > 100 µM (inactive)
[18]
  GI50: > 100 µM (inactive)
[19]
  GI50: > 100 µM (inactive)
[20]
  GI50: > 100 µM (inactive)
[21]
  GI50: > 100 µM (inactive)
[22]
  GI50: > 100 µM (inactive)
[23]
  GI50: > 100 µM (inactive)
[24]
  GI50: > 100 µM (inactive)
[25]
  GI50: > 100 µM (inactive)
[26]
  GI50: > 100 µM (inactive)
[27]
  GI50: > 100 µM (inactive)
[28]
  GI50: > 100 µM (inactive)
[29]
  GI50: > 100 µM (inactive)
[30]
  GI50: > 100 µM (inactive)
[31]
  GI50: > 100 µM (inactive)
[32]
  GI50: > 100 µM (inactive)
[33]
  GI50: > 100 µM (inactive)
[34]
  GI50: > 100 µM (inactive)
[35]
  GI50: > 100 µM (inactive)
[36]
  GI50: > 100 µM (inactive)
[37]
  GI50: > 100 µM (inactive)
[38]
  GI50: > 100 µM (inactive)
[39]
  GI50: > 100 µM (inactive)
[40]
  GI50: > 100 µM (inactive)
[41]
  GI50: > 100 µM (inactive)
[42]
  GI50: > 100 µM (inactive)
[43]
  GI50: > 100 µM (inactive)
[44]
  GI50: > 100 µM (inactive)
[45]
  GI50: > 100 µM (inactive)
[46]
  GI50: > 100 µM (inactive)
